Test results: ChEMBL document CHEMBL1201862, “PubChem BioAssay data set” (2004)
Active and inactive are the calls of the source.

What was measured:
[1] = biological target: Sphingosine 1-phosphate receptor 1 (Homo sapiens, UniProt P21453); format: functional;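 further: Tango beta-arrestin reporter U2OS cells stimulated with S1P near its EC80; inhibitor potency meaning antagonism of receptor activation by the natural agonist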
[2] = biological target: T1, Replicative DNA helicase DnaB (Mycobacterium tuberculosis, UniProt P9WMR3); assay: DnaB intein splicing inhibitors, dose response, biochemical, cell-free fluorescence (AID 449749); format: functional
T1 sequence (P9WMR3 whole entry): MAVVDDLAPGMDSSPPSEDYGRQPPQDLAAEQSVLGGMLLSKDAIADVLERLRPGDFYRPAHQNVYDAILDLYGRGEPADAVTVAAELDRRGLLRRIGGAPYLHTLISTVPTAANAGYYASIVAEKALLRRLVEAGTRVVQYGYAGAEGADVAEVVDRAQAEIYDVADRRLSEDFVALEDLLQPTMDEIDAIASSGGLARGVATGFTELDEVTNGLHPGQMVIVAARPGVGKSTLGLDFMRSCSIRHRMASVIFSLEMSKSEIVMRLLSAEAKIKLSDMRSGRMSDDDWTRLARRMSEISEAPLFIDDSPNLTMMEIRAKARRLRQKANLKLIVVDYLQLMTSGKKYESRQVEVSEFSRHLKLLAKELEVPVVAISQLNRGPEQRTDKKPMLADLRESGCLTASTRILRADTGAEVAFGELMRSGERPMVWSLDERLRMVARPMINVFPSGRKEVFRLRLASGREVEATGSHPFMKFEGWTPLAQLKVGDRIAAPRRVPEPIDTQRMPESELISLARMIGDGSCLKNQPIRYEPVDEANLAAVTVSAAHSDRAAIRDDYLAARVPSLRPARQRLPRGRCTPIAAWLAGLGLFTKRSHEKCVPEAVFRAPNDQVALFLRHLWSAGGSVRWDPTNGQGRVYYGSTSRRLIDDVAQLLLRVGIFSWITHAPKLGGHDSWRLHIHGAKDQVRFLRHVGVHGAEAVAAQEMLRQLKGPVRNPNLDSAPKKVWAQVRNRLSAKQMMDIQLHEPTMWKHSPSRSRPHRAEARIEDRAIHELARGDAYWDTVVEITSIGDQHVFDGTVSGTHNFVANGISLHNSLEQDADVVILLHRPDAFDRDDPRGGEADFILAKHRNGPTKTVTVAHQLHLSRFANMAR

Prothrombin = Prothrombin (Homo sapiens, UniProt P00734); assay: Thrombin 1536 HTS Dose Response Confirmation. [Related pubchem assays: 1046 (Thrombin 1536 HTS; hits were confirmed in this assay)]; format: functional
[3] = Luminescent dose response cell-based high throughput screening assay for inhibitors of the Janus kinase 2 mutant JAK2V617F. [Related pubchem assays: 1446 (Primary screen.), 1521 (Confirmation assay.), 1486 (Counter screen.)]; format: functional
Protein RecA = biological target: T2, Protein RecA (Mycobacterium tuberculosis, UniProt P9WHJ3); assay: Fluorescence Cell-Free Homogeneous Dose Retest to Identify Inhibitors of RecA-Intein Splicing Activity. [Related pubchem assays (depositor defined):AID2097, AID2223, AID489010, AID492950]; format: functional
T2 sequence (P9WHJ3 whole entry): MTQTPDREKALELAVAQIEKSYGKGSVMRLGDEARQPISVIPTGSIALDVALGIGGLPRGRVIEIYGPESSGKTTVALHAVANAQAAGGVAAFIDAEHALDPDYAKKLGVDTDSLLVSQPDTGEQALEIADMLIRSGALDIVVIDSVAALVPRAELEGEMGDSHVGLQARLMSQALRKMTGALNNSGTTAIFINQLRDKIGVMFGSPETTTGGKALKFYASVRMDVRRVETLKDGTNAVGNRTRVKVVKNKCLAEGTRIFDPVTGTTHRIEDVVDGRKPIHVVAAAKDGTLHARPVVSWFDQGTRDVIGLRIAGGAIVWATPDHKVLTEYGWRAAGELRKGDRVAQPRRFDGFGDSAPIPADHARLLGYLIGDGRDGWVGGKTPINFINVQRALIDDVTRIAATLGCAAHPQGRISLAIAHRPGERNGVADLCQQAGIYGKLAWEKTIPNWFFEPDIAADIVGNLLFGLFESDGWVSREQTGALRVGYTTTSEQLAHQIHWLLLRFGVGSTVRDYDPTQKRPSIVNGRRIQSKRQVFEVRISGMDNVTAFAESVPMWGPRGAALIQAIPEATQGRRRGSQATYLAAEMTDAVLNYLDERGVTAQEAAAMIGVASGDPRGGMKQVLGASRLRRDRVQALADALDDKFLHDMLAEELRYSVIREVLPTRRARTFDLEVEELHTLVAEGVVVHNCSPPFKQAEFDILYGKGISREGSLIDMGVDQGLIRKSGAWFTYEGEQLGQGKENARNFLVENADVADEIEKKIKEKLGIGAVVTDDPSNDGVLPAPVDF

[4] = biological target: T3, Sphingosine 1-phosphate receptor 4 (Homo sapiens, UniProt O95977); assay: Fluorescence dose response cell-based high throughput screening assay for antagonists of the Sphingosine 1-Phosphate Receptor 4 (S1P4). [Related pubchem assays: 1524 (Confirmation in triplicates.), 1510 (Primary screen.)]; format: functional
T3 sequence (O95977 whole entry): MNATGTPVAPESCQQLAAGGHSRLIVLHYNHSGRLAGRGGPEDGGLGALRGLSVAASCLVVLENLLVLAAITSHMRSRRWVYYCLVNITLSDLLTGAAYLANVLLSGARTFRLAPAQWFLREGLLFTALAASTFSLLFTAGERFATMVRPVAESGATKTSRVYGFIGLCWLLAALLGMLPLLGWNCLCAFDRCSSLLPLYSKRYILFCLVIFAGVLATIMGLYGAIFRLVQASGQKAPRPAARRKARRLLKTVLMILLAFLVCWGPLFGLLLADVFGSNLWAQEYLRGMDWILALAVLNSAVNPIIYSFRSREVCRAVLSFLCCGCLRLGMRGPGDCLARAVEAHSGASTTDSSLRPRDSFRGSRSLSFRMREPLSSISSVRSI

Aspartyl aminopeptidase = biological target: T4, Aspartyl aminopeptidase (Plasmodium falciparum 3D7, UniProt Q8I2J3); assay: Counterscreen for inhibitors of M1 and M17 aminopeptidases: QFRET-based biochemical high throughput dose response assay for inhibitors of the Plasmodium falciparum M18 Aspartyl Aminopeptidase (PFM18AAP). [Related PubChem assays: 1619 (Screening assay (M17LAP inhibitors).), 1445 (Screening assay (M1AAP inhibitors).)]
T4 sequence (Q8I2J3 whole entry): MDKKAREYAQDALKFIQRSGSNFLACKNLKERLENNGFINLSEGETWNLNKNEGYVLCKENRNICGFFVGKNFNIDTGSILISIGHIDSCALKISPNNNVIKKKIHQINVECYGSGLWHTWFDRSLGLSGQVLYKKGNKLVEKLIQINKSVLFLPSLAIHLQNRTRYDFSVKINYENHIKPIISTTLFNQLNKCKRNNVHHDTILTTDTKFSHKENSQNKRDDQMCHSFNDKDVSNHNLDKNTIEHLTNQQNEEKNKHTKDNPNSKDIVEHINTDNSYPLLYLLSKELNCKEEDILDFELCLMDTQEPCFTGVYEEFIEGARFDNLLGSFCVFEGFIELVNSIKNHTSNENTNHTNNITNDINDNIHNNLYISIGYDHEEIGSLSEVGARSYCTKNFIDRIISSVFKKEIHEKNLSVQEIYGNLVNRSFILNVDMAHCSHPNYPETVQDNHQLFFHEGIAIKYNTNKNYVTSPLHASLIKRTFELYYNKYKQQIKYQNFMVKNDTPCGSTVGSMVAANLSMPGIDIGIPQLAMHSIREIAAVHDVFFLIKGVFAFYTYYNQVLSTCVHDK

Procathepsin L = Procathepsin L (Homo sapiens, UniProt P07711); assay: CTSL1 protease inhibition – biochemical, QFRET, 1536-well, counter-screen for M1/M17 aminopeptidase inhibitor project, dose response (AID 2214)
Leucine aminopeptidase = biological target: T5, Leucine aminopeptidase (Plasmodium falciparum 3D7, UniProt Q8IL11); assay: P. falciparum M17LAP inhibitors, primary screen, biochemical, fluorogenic H-Leu-NHMec substrate, 1536-well (AID 1619); format: functional
T5 sequence (Q8IL11 whole entry): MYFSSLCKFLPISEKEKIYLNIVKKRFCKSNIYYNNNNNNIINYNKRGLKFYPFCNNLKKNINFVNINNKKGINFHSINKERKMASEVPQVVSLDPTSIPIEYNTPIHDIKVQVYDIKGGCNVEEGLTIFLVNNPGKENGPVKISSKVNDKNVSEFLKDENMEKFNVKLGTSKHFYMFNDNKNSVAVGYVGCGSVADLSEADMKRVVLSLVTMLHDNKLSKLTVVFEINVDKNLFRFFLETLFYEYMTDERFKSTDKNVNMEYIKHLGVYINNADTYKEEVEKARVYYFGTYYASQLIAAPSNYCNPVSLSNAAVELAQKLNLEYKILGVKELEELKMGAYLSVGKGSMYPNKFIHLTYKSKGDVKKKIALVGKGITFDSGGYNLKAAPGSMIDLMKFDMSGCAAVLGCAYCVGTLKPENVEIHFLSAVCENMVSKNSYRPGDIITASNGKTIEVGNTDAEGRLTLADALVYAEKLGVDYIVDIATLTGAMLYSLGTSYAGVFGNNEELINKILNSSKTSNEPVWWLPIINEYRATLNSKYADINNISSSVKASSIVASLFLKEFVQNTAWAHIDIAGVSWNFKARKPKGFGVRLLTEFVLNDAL

[5] = Luminescence Cell-Based Dose Confirmation HTS to Identify Activators of 5'UTR Stem-Loop Driven Alpha-Synuclein mRNA Translation in H4 Neuroglioblastoma Cells. [Related pubchem assays: 1829 (Project Summary), 1814 (Primary HTS)]; format: functional
[6] = Luminescence Cell-Based Dose Response to Identify Activators of 5'UTR Stem-Loop Driven Prion Protein mRNA Translation in H4-C Neuroglioblastoma Cells. [Related pubchem assays: 1829 (Project Summary), 1814 (Primary HTS)]; format: functional
H4 = assay: Luminescence Cell-Based Dose Response HTS to Identify Activators of 5'UTR Stem-Loop Driven Prion Protein mRNA Translation in H4 Neuroglioblastoma Cells. [Related pubchem assays: 1829 (Project Summary), 1814 (Primary HTS)]; format: functional; details: Homo sapiens
[7] = Luminescence Cell-Based Dose Response HTS to Identify Activators of Luciferase Translation or Activity in H4 […] Cells. [Related pubchem assays: 1829 (Project Summary), 1814 (Primary HTS)]; format: functional
[8] = Luminescence Cell-Based Dose Response to Identify Activators of Luciferase Translation or Activity in H4-C Neuroglioblastoma Cells. [Related pubchem assays: 1829 (Project Summary), 1814 (Primary HTS)]; format: functional
[9] = Luminescence Cell-Based Dose Confirmation to Identify Activators of 5'UTR Stem-Loop Driven Alpha-Synuclein mRNA Translation in H4 Neuroglioblastoma Cells. [Related pubchem assays: 1829 (Project Summary), 1814 (Primary HTS)]; format: functional
[10] = biological target: Epstein-Barr nuclear antigen 1 (Epstein-Barr virus (strain B95-8) (HHV-4) (Human herpesvirus 4), UniProt P03211); assay: inhibition of EBV nuclear antigen 1 DNA binding – biochemical, fluorescence polarization, 1536-well, dose response (AID 2381); design: species or system human gammaherpesvirus 4;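 further: fluorescence polarization of a Cy5 DNA probe bound by EBNA-1 protein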
[11] = biological target: Lytic switch protein BZLF1 (Epstein-Barr virus (strain B95-8) (HHV-4) (Human herpesvirus 4), UniProt P03206); assay: inhibition of BZLF1 ZTA DNA binding – biochemical, fluorescence polarization, Epstein-Barr virus, 1536-well, counter-screen for EBNA-1 inhibitor project, dose response (AID 2377); design: species or system human gammaherpesvirus 4;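 further: fluorescence polarization of Cy5-labelled ZRE DNA probe bound by purified Zta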
[12] = HIV-1 Vif–A3G interaction blockers – biochemical, TR-FRET, GST-Vif 1-94, biotin-A3G peptide, dose response retest, primary screen (AID 1117319); format: functional;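 further: TR-FRET signal of purified GST-Vif binding a biotinylated A3G peptide; inhibitors lower the FRET signal by blocking Vif and A3G binding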
[13] = biological target: T6, Polyadenylate-binding protein 1 (Homo sapiens, UniProt P11940); assay: MLLE binding blockers, Cy5 peptide tracer – biochemical, fluorescence polarization, Cy5-PAM2 peptide, secondary, miRNA deadenylation inhibitor project, dose response (AID 602260); format: functional; details: read-out: IC50_Mean
[14] = viability loss in THP-1 monocytes – THP-1 cells, cytotoxicity control for Vif-APOBEC3G degradation inhibitor project, dose response (AID 1117359); format: functional; details: THP-1
[15] = biological target: T6, Polyadenylate-binding protein 1; assay: MLLE domain peptide-binding blockers, IC50 – biochemical, fluorescence polarization, FITC-PAM2 peptide, dose response (AID 602259); format: functional; details: read-out: IC50_Mean

Epstein-Barr nuclear antigen 1, sequence (P03211 whole entry): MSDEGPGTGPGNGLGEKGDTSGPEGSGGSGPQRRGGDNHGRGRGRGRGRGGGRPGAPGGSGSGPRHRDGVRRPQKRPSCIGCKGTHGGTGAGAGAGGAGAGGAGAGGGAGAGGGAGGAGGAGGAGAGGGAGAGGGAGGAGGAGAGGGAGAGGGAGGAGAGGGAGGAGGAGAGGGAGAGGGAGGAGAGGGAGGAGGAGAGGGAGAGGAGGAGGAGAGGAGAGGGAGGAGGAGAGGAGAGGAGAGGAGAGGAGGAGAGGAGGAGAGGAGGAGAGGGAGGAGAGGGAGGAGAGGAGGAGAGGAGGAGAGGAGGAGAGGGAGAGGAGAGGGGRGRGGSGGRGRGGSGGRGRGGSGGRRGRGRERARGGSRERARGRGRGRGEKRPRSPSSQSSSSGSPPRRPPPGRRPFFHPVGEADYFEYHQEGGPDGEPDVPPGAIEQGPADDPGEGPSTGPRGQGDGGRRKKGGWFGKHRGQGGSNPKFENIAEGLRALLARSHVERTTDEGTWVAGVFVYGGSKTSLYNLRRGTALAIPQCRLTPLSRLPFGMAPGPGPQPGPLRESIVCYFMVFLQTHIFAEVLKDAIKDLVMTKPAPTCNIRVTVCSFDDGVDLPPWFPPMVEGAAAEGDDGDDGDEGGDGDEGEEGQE
Procathepsin L, sequence (P07711 whole entry): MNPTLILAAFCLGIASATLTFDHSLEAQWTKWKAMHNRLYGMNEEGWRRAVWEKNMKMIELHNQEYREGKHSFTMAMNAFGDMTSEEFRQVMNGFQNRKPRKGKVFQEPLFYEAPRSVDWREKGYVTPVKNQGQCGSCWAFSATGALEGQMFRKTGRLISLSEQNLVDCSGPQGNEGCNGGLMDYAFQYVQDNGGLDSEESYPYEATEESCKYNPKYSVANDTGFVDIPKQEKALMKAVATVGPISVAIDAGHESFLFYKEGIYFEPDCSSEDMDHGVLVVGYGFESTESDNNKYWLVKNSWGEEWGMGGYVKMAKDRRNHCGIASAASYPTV
Lytic switch protein BZLF1, sequence (P03206 whole entry): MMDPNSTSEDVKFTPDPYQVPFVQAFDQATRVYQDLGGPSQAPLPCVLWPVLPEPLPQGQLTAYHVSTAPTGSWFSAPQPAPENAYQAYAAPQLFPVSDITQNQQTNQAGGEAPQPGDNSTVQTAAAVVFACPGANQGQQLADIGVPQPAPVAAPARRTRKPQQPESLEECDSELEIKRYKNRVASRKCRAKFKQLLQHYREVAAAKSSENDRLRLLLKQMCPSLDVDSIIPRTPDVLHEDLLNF
T6 sequence (P11940 whole entry): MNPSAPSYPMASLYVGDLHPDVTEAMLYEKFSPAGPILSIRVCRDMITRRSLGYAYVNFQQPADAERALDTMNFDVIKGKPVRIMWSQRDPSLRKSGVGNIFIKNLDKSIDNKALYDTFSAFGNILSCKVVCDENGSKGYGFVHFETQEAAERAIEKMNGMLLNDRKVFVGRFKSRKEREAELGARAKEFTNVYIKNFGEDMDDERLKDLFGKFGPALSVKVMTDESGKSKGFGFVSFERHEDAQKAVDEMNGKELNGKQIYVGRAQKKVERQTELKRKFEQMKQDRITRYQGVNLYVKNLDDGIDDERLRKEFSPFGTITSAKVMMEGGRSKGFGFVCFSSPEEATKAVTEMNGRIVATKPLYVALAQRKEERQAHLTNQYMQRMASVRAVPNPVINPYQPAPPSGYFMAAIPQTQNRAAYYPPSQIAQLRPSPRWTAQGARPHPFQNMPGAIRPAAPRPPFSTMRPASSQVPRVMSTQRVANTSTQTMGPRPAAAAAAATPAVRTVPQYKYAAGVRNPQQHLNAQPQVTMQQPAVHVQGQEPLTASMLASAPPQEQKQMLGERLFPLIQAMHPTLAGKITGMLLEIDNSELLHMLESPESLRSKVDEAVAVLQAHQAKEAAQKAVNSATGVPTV
Sphingosine 1-phosphate receptor 1, sequence (P21453 whole entry): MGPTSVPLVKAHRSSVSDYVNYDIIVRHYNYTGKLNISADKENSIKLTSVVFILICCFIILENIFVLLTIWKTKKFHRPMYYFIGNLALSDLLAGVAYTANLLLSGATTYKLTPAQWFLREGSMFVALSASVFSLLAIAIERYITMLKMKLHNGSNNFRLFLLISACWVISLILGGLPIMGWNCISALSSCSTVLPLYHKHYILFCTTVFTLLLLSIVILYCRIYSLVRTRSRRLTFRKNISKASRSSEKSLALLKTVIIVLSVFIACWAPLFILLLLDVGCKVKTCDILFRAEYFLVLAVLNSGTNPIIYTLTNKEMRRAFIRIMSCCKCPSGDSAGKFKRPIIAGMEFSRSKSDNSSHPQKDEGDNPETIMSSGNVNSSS

CCC(C)[C@@H](NC(=O)OC(C)(C)C)c1nnc(S(=O)(=O)Cc2cccc(C)c2)o1 (stereo partly specified)
IC50 [1]: > 49.8 µM (not active) | AC50 [2]: 2.31 µM (active) | IC50 (Prothrombin): 3.23 µM (active) | IC50 [3]: 0.826 µM (active) | EC50 (Protein RecA): 2.5 µM (active) | IC50 [4]: 2.61 µM (active)

COc1cc(NC(=O)CSc2nc3cc(C)ccc3cc2C)c(C(=O)O)cc1OC
IC50 (Aspartyl aminopeptidase): > 73.5 µM (not active) | IC50 (Procathepsin L): > 59.6 µM (not active) | IC50 (Leucine aminopeptidase): 1.93 µM (active)

COc1ccc(/C=C2\SC(=O)N(CCNC(=O)Cn3cnnn3)C2=O)cc1
EC50 [5]: 2.28 µM (active) | EC50 [6]: 0.533 µM (active) | EC50 (H4): 0.122 µM (active) | EC50 [7]: 33.3 µM (active) | EC50 [8]: 0.405 µM (active) | EC50 [9]: 0.926 µM (active)

COc1cc(NC(=O)COC(=O)/C=C/c2ccc(Cl)cc2Cl)cc(OC)c1
IC50 [10]: 16.1 µM (not active) | IC50 [11]: > 111 µM (not active)

O=C(N/C(=C/c1ccc(Br)cc1)c1nc2ccccc2[nH]1)c1ccco1
IC50 [10]: 20 µM (not active) | IC50 [11]: 111 µM (not active)

Cc1c(O)n(-c2ccc(F)cc2)c(SCC(=O)Nc2ccc3c4c(cccc24)CC3)nc1=O
IC50 [12]: > 100 µM (active) | IC50 (Aspartyl aminopeptidase): > 73.5 µM (not active) | IC50 [13]: > 66 µM (inactive) | IC50 (Procathepsin L): > 59.6 µM (not active) | IC50 (Leucine aminopeptidase): 6.36 µM (active) | CC50 [14]: > 40 µM (active) | IC50 [15]: > 66 µM (inactive)

O=C(N/N=C/c1ccccc1F)c1csc2c1CCCC2
EC50 [5]: < 0.1 µM (active) | EC50 [6]: 0.264 µM (active) | EC50 [7]: < 0.1 µM (inconclusive) | EC50 [8]: 0.323 µM (active) | EC50 [9]: 0.227 µM (active)
